# Legend:
# IgE = experiment: passive cutaneous anaphylaxis (PCA) test, oral, IgE (reaginic antiserum) site; format: in vivo, rat; settings: Table I, 1 mg./kg.
# Method: (§1) The antiallergy property of the compounds of this invention is evaluated by the passive cutaneous anaphylaxis (PCA) test (Ovary, J. Immun., 81, 355, 1958). In the PCA test, normal animals are injected intradermally (i.d.) with antibodies contained in serum obtained from actively sensitized animals. The animals are then challenged intravenously with antigen mixed with a dye such as Evans' Blue. The increased capillary permeability caused by the antigen-antibody reaction causes the dye to leak from the site of the antibody injection. The test animals are then asphyxiated and the intensity of the reaction determined by measuring the diameter and intensity of the blue coloration on the inner surface of the animals' skin.
# The PCA test is a measure of the anti-allergic (especially anti-asthmatic) activity of a compound. Compounds which inhibit a positive PCA test induced by the rat immunochemical counterpart of human immunoglobulin E (IgE), or reagin, are considered to have anti-allergic activity (C. Mota, Ann. N.Y. Acad. Sci., 103, 264 1963). (Reagin is primarily immunoglobulin E [IgE] and is the principal immunoglobulin responsible for allergic asthma, anaphylaxis, hay fever, food sensitivities and certain manifestations of drug sensitivities, although recent evidence ascribes to the IgG class of antibodies a significant role in the mediation of allergic diseases). Such compounds when administered to a sensitized subject, human or animal, prior to the time when the subject comes into contact with antigens or substances to which it is allergic, will prevent the allergic reaction which would otherwise occur. They, therefore, provide a method for the prophylactic treatment of allergy or anaphylactic reactions of a reagin mediated nature.
# To put it another way, such compounds block the release of mediators resulting from the antigen-antibody (allergic) reaction as illustrated in the PCA test using rat homocytotropic antibody--a known correlate of human reaginic antibody. Inhibition of reaginic antigen-antibody reactions in rats, the test animal of the PCA test, is regarded as representative of inhibition of human reaginic antigen-antibody reactions which occur during allergic episodes.
# The ability of agents to interfere with PCA reactions is measured in male Charles River Wistar rats, 170-210 g. Reaginic antiserum, rich in IgE antibodies, is prepared according to Petillo et al., Int. Arch. Allergy, 44, 309 (1973). Hyperimmune antiserum rich in IgG antibodies to hen egg albumin is prepared according to Orange et al., J. Exptl. Med., 127, 767 (1968). Forty-eight hours prior to antigen challenge, the reaginic antiserum is injected intradermally (i.d.) into the shaved skin of a normal rat's back; 5 hours before challenge the hyperimmune antisera is similarly injected. At a third site 60 mcg. histamine dihydrochloride and 0.5 mcg. serotonin creatinine sulfate are injected i.d. just prior to antigen challenge as a check for antihistaminic, antiserotonin and unspecific types of blockage; the compounds of the instant invention or saline are then administered i.v. and immediately followed by the challenge of 5 mg. egg albumen and 2.5 mg. Evans' Blue dye in saline. In the case of oral administration Evans' Blue dye and egg albumin are given 5 minutes after administration of the drug. Thirty minutes later the animals are asphyxiated using chloroform and the skin of the back removed and reversed for observation. A score is assigned each injection site equal to the product of the diameter of the site in mm. and a grade of 0.1, 0.5, 1, 2, 3 or 4 proportional to intensity of dye coloration. The scores for a given injection site are summed for each group of five animals and compared to the saline treated controls. The difference is expressed as percent blockage due to the compound employed. […]
# [1] = plasma concentration / oral absorption in dogs; format: in vivo, dog
# Method: (§2) This is supported by the observations of plasma concentrations of 3 to 7 μg/ml one hour after oral administration of III, 50 to 300 mg/kg.
# [2] = tested on: passive cutaneous anaphylaxis (PCA); experiment: PCA test, oral activity in general; format: in vivo, rat
# Method: as §1
# The ability of agents to interfere with PCA reactions is measured in male Charles River Wistar rats, 170-210 g. Reaginic antiserum, rich in IgE antibodies, is prepared according to Petillo et al., Int. Arch. Allergy, 44, 309 (1973). Hyperimmune antiserum rich in IgG antibodies to hen egg albumin is prepared according to Orange et al., J. Exptl. Med., 127, 767 (1968). Forty-eight hours prior to antigen challenge, the reaginic antiserum is injected intradermally (i.d.) into the shaved skin of a normal rat's back; 5 hours before challenge the hyperimmune antisera is similarly injected. […] The difference is expressed as percent blockage due to the compound employed.
# [3] = plasma concentration / oral absorption in rats; format: in vivo, rat
# Method: as §2
# anticholinergic effects = experiment: anticholinergic effects
# [4] = tested on: passive systemic anaphylaxis; experiment: passive systemic anaphylaxis (rise in plasma histamine on antigen challenge); format: in vivo, rat
# bone marrow = experiment: chromosomal damage in bone marrow of mice; format: in vivo, mouse; settings: single oral dose 40 mg/kg; 6, 12 or 24 hours
# Method: Single oral doses of III, 40 mg/kg, were administered to groups of mice who were sacrificed 6, 12 or 24 hours later. […] From these findings, it is evident that III has no obvious mutagenic potential.
# dogs = experiment: toleration study in dogs, 7 days oral; format: in vivo, dog
# Method: In toleration studies, III was given orally by gavage to dogs for a period of seven days at doses of 50, 150 and 300 mg/kg/day.
# [5] = oral gavage 50, 150 and 300 mg/kg/day, seven days
smiles,measurement,setting,value
"O=C(Nc1nnn[nH]1)c1cnc2sc3c(n2c1=O)CCCC3 [compound III, N-(5-tetrazolyl)-1-oxo-1H-cyclohexenothiazolo[3,2-a]pyrimidine-2-carboxamide]","Oral Activity (% of Protection) of Amides in the PCA Test, IgE 1 mg./kg.",IgE,47%
same,"oral absorption, dog",[1]; oral suspensions or capsules,absorbed readily
same,concentration at 1 h,"[1]; plasma, dog, one hour, oral 50 to 300 mg/kg, suspensions or capsules, read-out: plasma concentration one hour after oral administration, dog",9000 to 26000 ng/mL
same,"oral activity, in words",[2],excellent oral activity
same,concentration at 1 h,"[3]; plasma, rat, one hour, oral 50 to 300 mg/kg, read-out: plasma concentration one hour after oral administration, rat",3000 to 7000 ng/mL
same,"oral absorption, rat",[3]; ratio of comparably effective oral and intravenous doses in rat PCA test,good oral absorption
same,anticholinergic effects,anticholinergic effects,no significant anticholinergic effects
same,ED50,"[4]; Rattus norvegicus, iv, rats passively sensitized with IgE-rich antiserum",0.028 mg/kg
same,rise in plasma histamine caused by antigen challenge,"[4]; rat, in vivo",prevented
same,"chromosomal damage in bone marrow, single dose",bone marrow,did not reveal any chromosomal damage
same,emetic effect when administered by capsule after meals,"dogs; capsule after, rather than before, meals",could be eliminated
same,emesis,dogs; [5],observed at all doses
same,gross pathological changes,dogs; [5],No gross pathological changes were observed
same,"microscopic examination of liver, kidney, heart and lung",dogs; [5],did not reveal any changes

# From US4414388A, “1-Oxo-1H-thiazolo[3,2-a]pyrimidine-2-carboxamides” (Pfizer Inc., priority 1981, dated 1983)
